US12110289B2, “Heterocyclic compounds, preparation methods and uses thereof” (InventisBio Co., Ltd., priority 2020, dated 2024)
Like-named read-outs stand apart in the source and are kept apart here.

Test system: Lung cancer cell line NCI-H358 containing KRas G12C mutation
Assay: Assay for cell proliferation (Cell-titer Glo, 5 days)
Assay type: cell-based, human
Conditions: for IC50: NCI-H358, 5 days, Cell-titer Glo, read-out: IC50 (nM), Inhibition of NCI-H358 Cell Proliferation
Description: One hundred fifty microliter (150 μL) of media containing 2000 cells per well were seeded into each well of a 96-well culture plate and left to attach overnight in a 37° C. incubator with 5% CO2. Diluted compounds of 0.75 μL for each well were added by liquid handler at a final concentration of 0.5% DMSO. Cells were treated for 5 days in the incubator. Cell-titer Glo (CTG) kit (Promega) was used to assess cell proliferation. Of note, 120 μL of CTG reagent was added to each well and incubated at RT for 10 minutes.

IC50 [nM]	Structure (SMILES)	also measured
16.2	C=CC(=O)N1CCN(c2nc(=O)n(-c3c(C)cc4c(ncn4C)c3C(C)C)c3nc(-c4c(N)cccc4F)c(Cl)cc23)[C@@H](C)C1 (atropisomer, axis not shown) [Compound 151]	–
38	C=CC(=O)N1CCN(c2nc(=O)n(-c3c(C)cc4c(ncn4C)c3C(C)C)c3nc(-c4ccccc4F)c(Cl)cc23)[C@@H](C)C1 (single isomer, unassigned) [Compound 141]	–
2.2	C=CC(=O)N1CCN(c2nc(=O)n(-c3c(C)cc4c(ncn4C)c3C(C)C)c3nc(-c4ccccc4F)c(Cl)cc23)[C@@H](C)C1 (single isomer, unassigned) [Compound 142]	–
1300	C=CC(=O)N1CCN(c2nc(=O)n(-c3c(F)cc4c(ncn4C)c3C(C)C)c3nc(-c4c(N)cccc4F)c(F)cc23)[C@@H](C)C1 (single isomer, unassigned) [Compound 143]	–
2.5	C=CC(=O)N1CCN(c2nc(=O)n(-c3c(F)cc4c(ncn4C)c3C(C)C)c3nc(-c4c(N)cccc4F)c(F)cc23)[C@@H](C)C1 (single isomer, unassigned) [Compound 144]	–
2.7	C=CC(=O)N1CCN(c2nc(=O)n(-c3c(C)cc4c(ncn4C)c3C(C)C)c3nc(-c4c(N)cccc4F)c(F)cc23)[C@@H](C)C1 (single isomer, unassigned) [Compound 147]	–
78.6	C=CC(=O)N1CCN(c2nc(=O)n(-c3c(C)cc4c(ncn4C)c3C(C)C)c3nc(-c4c(N)cccc4F)c(F)cc23)[C@@H](C)C1 (single isomer, unassigned) [Compound 148]	–
12.8	C=CC(=O)N1C[C@H](C)N(c2nc(=O)n(-c3c(C)cc4c(ncn4C)c3C(C)C)c3nc(-c4c(O)cccc4F)c(Cl)cc23)C[C@H]1C (single isomer, unassigned) [Compound 149]	–
1.1	C=CC(=O)N1C[C@H](C)N(c2nc(=O)n(-c3c(C)cc4c(ncn4C)c3C(C)C)c3nc(-c4c(O)cccc4F)c(Cl)cc23)C[C@H]1C (single isomer, unassigned) [Compound 150]	–
172	C=CC(=O)N1C[C@H](C)N(c2nc(=O)n(-c3c(C)cc4c(ncn4C)c3C(C)C)c3nc(-c4c(N)cccc4F)c(F)cc23)C[C@H]1C (single isomer, unassigned) [Compound 153]	–
1.4	C=CC(=O)N1C[C@H](C)N(c2nc(=O)n(-c3c(C)cc4c(ncn4C)c3C(C)C)c3nc(-c4c(N)cccc4F)c(F)cc23)C[C@H]1C (single isomer, unassigned) [Compound 154]	–
60	C=CC(=O)N1CCN(c2nc(=O)n(-c3c(C)cc4c(ncn4C)c3C(C)C)c3nc(-c4c(O)cccc4F)c(F)cc23)[C@@H](C)C1 (single isomer, unassigned) [Compound 155]	–
6.9	C=CC(=O)N1CCN(c2nc(=O)n(-c3c(C)cc4c(ncn4C)c3C(C)C)c3nc(-c4c(O)cccc4F)c(F)cc23)[C@@H](C)C1 (single isomer, unassigned) [Compound 156]	–
32.4	C=CC(=O)N1C[C@H](C)N(c2nc(=O)n(-c3c(C)cc4c(ncn4C)c3C(C)C)c3nc(-c4c(N)cccc4F)c(Cl)cc23)C[C@H]1C (single isomer, unassigned) [Compound 161]	–
0.5	C=CC(=O)N1C[C@H](C)N(c2nc(=O)n(-c3c(C)cc4c(ncn4C)c3C(C)C)c3nc(-c4c(N)cccc4F)c(Cl)cc23)C[C@H]1C (single isomer, unassigned) [Compound 162]	–
0.2	C=CC(=O)N1C[C@H](C)N(c2nc(=O)n(-c3c(F)cc4c(ncn4C)c3C(C)C)c3nc(-c4c(N)cccc4F)c(Cl)cc23)C[C@H]1C (single isomer, unassigned) [Compound 174]	–

Continued, molecule first:

Structure (SMILES)	IC50 [nM]	also measured
C=CC(=O)N1C[C@H](C)N(c2nc(=O)n(-c3c(F)cc4c(ncn4C)c3C3CC3)c3nc(-c4c(N)cccc4F)c(F)cc23)C[C@H]1C (atropisomer, axis not shown) [Compound 179]	–	IC50 (Homo sapiens, NCI-H358, 120 h): 386 nM
C=CC(=O)N1C[C@H](C)N(c2nc(=O)n(-c3c(C)cc4c(ncn4C)c3C(C)C)c3nc(-c4ccccc4F)c(Cl)cc23)C[C@H]1C (single isomer, unassigned) [Compound 159]	64.2	–
C=CC(=O)N1C[C@H](C)N(c2nc(=O)n(-c3c(C)cc4c(ncn4C)c3C(C)C)c3nc(-c4ccccc4F)c(Cl)cc23)C[C@H]1C (single isomer, unassigned) [Compound 160]	1.3	–
C=CC(=O)N1CCN(c2nc(=O)n(-c3c(C)nc4c(ncn4C)c3C(C)C)c3nc(-c4c(O)cccc4F)c(F)cc23)[C@@H](C)C1 (single isomer, unassigned) [Compound 163]	–	IC50 (Homo sapiens, NCI-H358, 120 h): 44.2 nM
C=CC(=O)N1C[C@H](C)N(c2nc(=O)n(-c3c(C)nc4c(ncn4C)c3C(C)C)c3nc(-c4c(N)cccc4F)c(F)cc23)C[C@H]1C (single isomer, unassigned) [Compound 164]	> 1000	–
C=CC(=O)N1C[C@H](C)N(c2nc(=O)n(-c3c(C)nc4c(ncn4C)c3C(C)C)c3nc(-c4c(N)cccc4F)c(F)cc23)C[C@H]1C (single isomer, unassigned) [Compound 165]	157	–
C=CC(=O)N1C[C@H](C)N(c2nc(=O)n(-c3c(C)nc4c(ncn4C)c3C(C)C)c3nc(-c4ccccc4F)c(Cl)cc23)C[C@H]1C (single isomer, unassigned) [Compound 167]	0.8	–
C=CC(=O)N1C[C@H](C)N(c2nc(=O)n(-c3c(C)nc4c(ncn4C)c3C(C)C)c3nc(-c4ccccc4F)c(Cl)cc23)C[C@H]1C (single isomer, unassigned) [Compound 168]	20.3	–
C=CC(=O)N1C[C@H](C)N(c2nc(=O)n(-c3c(F)cc4c(ncn4C)c3C(C)C)c3nc(-c4ccccc4F)c(Cl)cc23)C[C@H]1C (single isomer, unassigned) [Compound 169]	119	–
C=CC(=O)N1C[C@H](C)N(c2nc(=O)n(-c3c(F)cc4c(ncn4C)c3C(C)C)c3nc(-c4ccccc4F)c(Cl)cc23)C[C@H]1C (single isomer, unassigned) [Compound 170]	1	–
C=CC(=O)N1C[C@H](C)N(c2nc(=O)n(-c3c(C)nc4c(ncn4C)c3C(C)C)c3nc(-c4c(O)cccc4F)c(Cl)cc23)C[C@H]1C (single isomer, unassigned) [Compound 171]	15.6	–
C=CC(=O)N1C[C@H](C)N(c2nc(=O)n(-c3c(C)nc4c(ncn4C)c3C(C)C)c3nc(-c4c(O)cccc4F)c(Cl)cc23)C[C@H]1C (single isomer, unassigned) [Compound 172]	1.2	–
C=CC(=O)N1C[C@H](C)N(c2nc(=O)n(-c3c(F)cc4c(ncn4C)c3C(C)C)c3nc(-c4c(N)cccc4F)c(Cl)cc23)C[C@H]1C (single isomer, unassigned) [Compound 173]	23.5	–
C=CC(=O)N1C[C@H](C)N(c2nc(=O)n(-c3c(C)nc4c(ncn4C)c3C(C)C)c3nc(-c4c(N)cccc4F)c(Cl)cc23)C[C@H]1C (single isomer, unassigned) [Compound 175]	16.1	–
C=CC(=O)N1C[C@H](C)N(c2nc(=O)n(-c3c(C)nc4c(ncn4C)c3C(C)C)c3nc(-c4c(N)cccc4F)c(Cl)cc23)C[C@H]1C (single isomer, unassigned) [Compound 176]	0.5	–
C=CC(=O)N1C[C@H](C)N(c2nc(=O)n(-c3c(F)cc4c(ncn4C)c3C3CC3)c3nc(-c4c(N)cccc4F)c(Cl)cc23)C[C@H]1C (single isomer, unassigned) [Compound 177]	73.7	–
C=CC(=O)N1C[C@H](C)N(c2nc(=O)n(-c3c(F)cc4c(ncn4C)c3C3CC3)c3nc(-c4c(N)cccc4F)c(Cl)cc23)C[C@H]1C (single isomer, unassigned) [Compound 178]	0.9	–
C=CC(=O)N1C[C@H](C)N(c2nc(=O)n(-c3c(C(C)C)nc4c(ncn4C)c3C)c3nc(-c4ccccc4F)c(Cl)cc23)C[C@H]1C (single isomer, unassigned) [Compound 182]	1.7	–
C=CC(=O)N1C[C@H](C)N(c2nc(=O)n(-c3c(C(C)C)nc4c(ncn4C)c3C)c3nc(-c4c(N)cccc4F)c(Cl)cc23)C[C@H]1C (single isomer, unassigned) [Compound 183]	27.4	–
C=CC(=O)N1C[C@H](C)N(c2nc(=O)n(-c3c(C(C)C)nc4c(ncn4C)c3C)c3nc(-c4c(N)cccc4F)c(Cl)cc23)C[C@H]1C (single isomer, unassigned) [Compound 184]	0.2	–
C=CC(=O)N1C[C@H](C)N(c2nc(=O)n(-c3c(C(C)C)nc4c(ncn4C)c3C)c3nc(-c4c(O)cccc4F)c(Cl)cc23)C[C@H]1C (single isomer, unassigned) [Compound 185]	21.7	–
C=CC(=O)N1C[C@H](C)N(c2nc(=O)n(-c3c(C(C)C)nc4c(ncn4C)c3C)c3nc(-c4c(O)cccc4F)c(Cl)cc23)C[C@H]1C (single isomer, unassigned) [Compound 186]	0.9	–
C=CC(=O)N1C[C@H](C)N(c2nc(=O)n(-c3c(C(C)C)ncnc3C(C)C)c3nc(-c4c(N)cccc4F)c(F)cc23)C[C@H]1C [4-((2S,5R)-4-acryloyl-2,5-dimethylpiperazin-1-yl)-7-(2-amino-6-fluorophenyl)-1-(4,6-diisopropylpyrimidin-5-yl)-6-fluoropyrido[2,3-d]pyrimidin-2(1H)-one]	–	IC50 (Homo sapiens, NCI-H358, 120 h): 5.3 nM
C=CC(=O)N1C[C@H](C)N(c2nc(=O)n(-c3c(C(C)C)ncnc3C(C)C)c3nc(-c4c(N)cccc4F)c(Cl)cc23)C[C@H]1C [4-((2S,5R)-4-acryloyl-2,5-dimethylpiperazin-1-yl)-7-(2-amino-6-fluorophenyl)-6-chloro-1-(4,6-diisopropylpyrimidin-5-yl)pyrido[2,3-d]pyrimidin-2(1H)-one]	–	IC50 (Homo sapiens, NCI-H358, 120 h): 1.6 nM; fold more potent: 2-amino-6-fluoro-phenyl compound vs. corresponding 2-fluoro-phenyl compound at R8 (NCI-H358 IC50 comparison): only slightly more potent
